Laboratory results: US20200360372A1, “COMBINATION THERAPY FOR THE TREATMENT OF ACUTE MYELOID LEUKEMIA” (ASTELLAS PHARMA INC., priority 2016, published 2020)

System: MV4-11 cells
Assay: Anti-apoptosis protein expression in MV4-11 cells (western blot)
Format: cell-based, human
Conditions: 24 hours
Protocol: Anti-Apoptosis Protein Expression
MV4-11 cells were seeded on 15 cm dish and cultured overnight. The cells were treated with compound A at 0 (DMSO) or 10 nmol/L in combination with azacitidine at 0 (DMSO) or 1000 nmol/L at final concentration. The assay was performed in duplicate. After twenty-four hours, cells were harvested and lysed with lysis buffer (RIPA Buffer [Thermo Fisher Scientific], 1×Halt Phosphatase Inhibitor Cocktail [Thermo Fisher Scientific], and Protease Inhibitor Cocktail [Sigma-Aldrich]). The samples are centrifuged, and protein concentrations of supernatants were determined using the Pierce (trademark) 660 nm Protein Assay (Thermo Fisher Scientific). Aliquots of 2.0 μg protein/μL were prepared in sample buffer (10 mmol/L dithiothreitol (DTT) [Nacalai Tesque] and 1×SDS sample buffer [Wako Pure Chemical Industries, Ltd.], in lysis buffer), and then were boiled for 5 min.
The samples were separated by electrophoresis and transferred with Trans-Blot (registration symbol) Turbo transfer Pack PVDF (Bio-Rad Laboratories). After blocking with Blocking One (Nacalai Tesque) for 1 hour, each membrane was incubated with antibodies against MCL-1 (#5453, Cell Signaling Technology), BCL2L10 (#3869. Cell Signaling Technology), Survivin (#AF886, R&D Systems), cleaved PARP (#9541, Cell Signaling Technology), or Actin (A2066, Sigma-Aldrich) overnight in a cold room. After washing, the membranes were then incubated with an anti-rabbit IgG HRP-linked antibody (#7074, Cell Signaling Technology) for 1 hour at room temperature. After a final wash, signals for the each proteins were detected using a chemiluminescence reagent ECL-prime Blotting Detection Reagent (GE Healthcare) with a CCD camera (ImageQuant LAS4000. GE Healthcare).

For CCc1nc(C(N)=O)c(Nc2ccc(N3CCC(N4CCN(C)CC4)CC3)c(OC)c2)nc1NC1CCOCC1 [compound A hemifumarate, 6-ethyl-3-({3-methoxy-4-[4-(4-methylpiperazin-1-yl)piperidin-1-yl]phenyl}amino)-5-(tetrahydro-2H-pyran-4-ylamino)pyrazine-2-carboxamide hemifumarate], the “expression of anti-apoptosis protein BCL2L10” value (10 nmol/L) was “inhibits”, the “expression of anti-apoptosis protein MCL-1” value (10 nmol/L) was “inhibits” and the “expression of anti-apoptosis protein survivin” value (10 nmol/L) was “inhibits”. The PARP cleavage (compound A 10 nmol/L with or without azacitidine 1000 nmol/L) was “increase”.
